32 compounds from US7741493B2, “Heterocyclic compounds as P2X7 ion channel blockers” (Aventis Pharmaceuticals Inc., priority 2003, dated 2010) can be followed below.

Counter-ions that a name gives are not always drawn.

The target of one assay is T1, P2X7 (Homo sapiens, UniProt Q99572).
T1 sequence (Q99572 1-595): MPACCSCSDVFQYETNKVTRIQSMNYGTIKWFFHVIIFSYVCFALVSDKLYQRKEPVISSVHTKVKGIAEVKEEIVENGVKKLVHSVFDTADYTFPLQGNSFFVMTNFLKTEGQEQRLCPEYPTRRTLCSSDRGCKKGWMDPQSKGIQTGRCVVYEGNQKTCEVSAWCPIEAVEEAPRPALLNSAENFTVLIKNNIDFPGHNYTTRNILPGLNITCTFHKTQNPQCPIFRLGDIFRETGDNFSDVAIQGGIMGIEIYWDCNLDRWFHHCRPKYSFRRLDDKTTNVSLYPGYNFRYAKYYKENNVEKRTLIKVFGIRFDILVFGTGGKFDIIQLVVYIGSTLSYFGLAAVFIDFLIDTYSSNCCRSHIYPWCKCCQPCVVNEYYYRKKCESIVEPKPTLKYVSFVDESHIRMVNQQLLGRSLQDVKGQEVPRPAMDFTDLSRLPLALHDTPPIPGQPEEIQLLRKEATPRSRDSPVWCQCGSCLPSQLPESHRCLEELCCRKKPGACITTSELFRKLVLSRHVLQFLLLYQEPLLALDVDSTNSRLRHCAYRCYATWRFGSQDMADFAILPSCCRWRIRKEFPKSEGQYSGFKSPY
The assay can be described thus: YO-PRO-1 dye uptake assay in U373 cells stably expressing P2X7. Type of assay: cell-based. Further details: The complete open reading frame of human P2X7 was amplified from Incyte clone 148057; expressed in transfected cells. As to conditions: IC50 (nM), dye uptake through P2X7, U373 cells, 300 μM BzATP, 5 μM YO-PRO-1, test compounds 30 nM to 3 μM. Here is the method:
Following a 24-hr exposure to DNA, cells were trypsinized and re-seeded at low density in the presence of […] G418. After incubation for 2 weeks, isolated clones were selected with cloning cylinders and replated in […] G418. Cell clones were then expanded. Clones were screened for P2X7 by applying ATP and recording the resultant current using patch clamp electrophysiology.
U373 cells stably expressing P2X7 were used to screen drugs via a dye uptake assay. Cells were plated overnight on collagen coated 96-well plates at a density of 35,000 cells per well. The following day, culture media was replaced with Mg^++ and Ca^++-free Hank's balanced salt solution and various concentrations of test compounds ranging from 30 nM to 3 μM. Cells were then allowed to incubate with test compounds at 37° C. for 20 minutes. Following this incubation period YO-PRO-1 dye (Molecular Probes, Eugene, Oreg., final concentration 5 μM) and 2′-& 3′-O-(4-Benzolybenzoyl)-Adenosine 5′-triphosphate (Sigma Chemical, St Louis, Mo., final concentration 300 μM) were added to the cells sequentially. Cells were then incubated at 37° C. for 1.5 hours. […] Fluorescence in the presence of test substances was compared to that in the absence of test substances (control).
Consider `Fc1cccc(CC2=N[C@H](c3ccccc3)[C@H](c3ccccc3)N2)c1` [cis-4,5-diphenyl-2-(3-fluorobenzyl)-4,5-dihydro-1H-imidazole], for which half-maximal inhibition (IC50) required 80 nM.

Staying with this assay, now noted: dye uptake through P2X7, U373 cells, 300 μM BzATP, 5 μM YO-PRO-1, test compounds 30 nM to 3 μM; read-out: IC50.
Turning to `Fc1ccc(CCC2=N[C@@H](c3cccc(F)c3)[C@@H](c3cccc(F)c3)N2)cc1` [2-[2-(4-Fluorophenyl)ethyl]-cis-4,5-bis-(3-fluorophenyl)-4,5-dihydro-1H-imidazole trifluoroacetate], the IC50 is 572 nM. With `Cc1ccccc1[C@H]1NC(NCc2ccc(F)cc2)=N[C@H]1c1ccccc1C` [[cis-4,5-bis-(2-Methylphenyl)-4,5-dihydro-1H-imidazol-2-yl]-(4-fluorobenzyl)amine hydrochloride], the IC50 turned out to be 139 nM. On to `Fc1ccc(CNC2=N[C@@H](c3ccccc3)[C@@H](c3ccccc3)N2)cc1F` [cis-4,5-diphenyl-2-[(3,4-difluorobenzyl)amino]-4,5-dihydro-1H-imidazole], for which the IC50 was 65 nM. Still for that read-out and setting: the result for `Fc1ccc(CCC2=N[C@@H](c3ccccc3)[C@@H](c3ccccc3)N2)cc1` [2-[2-(4-Fluorophenyl)ethyl]-cis-4,5-diphenyl-4,5-dihydro-1H-imidazole trifluoroacetate] reads 218 nM. As to `c1ccc(CSC2=N[C@@H](c3ccccc3)[C@@H](c3ccccc3)N2)cc1` [cis-4,5-diphenyl-2-benzylthio-4,5-dihydro-1H-imidazole], the IC50 turned out to be 214 nM.

Consider `Fc1ccc(CNC2=N[C@@H](c3ccccc3F)[C@@H](c3ccccc3F)N2)cc1` [(cis-4,5-bis-(2-Fluorophenyl)-4,5-dihydro-1H-imidazol-2-yl)-(4-fluorobenzyl)amine hydrochloride], for which the IC50 worked out at 390 nM. In the case of `c1ccc(COc2ccc(CSC3=N[C@@H](c4ccccc4)[C@@H](c4ccccc4)N3)cc2OCc2ccccc2)cc1` [2-[(3,4-Dibenzyloxybenzyl)thio]-cis-4,5-diphenyl-4,5-dihydro-1H-imidazole hydrochloride], the concentration for half-maximal inhibition (IC50) stood at 548 nM. Regarding `Fc1ccc(CNC2=N[C@@H](c3cccc(Cl)c3)[C@@H](c3cccc(Cl)c3)N2)cc1` [[cis-4,5-bis-(3-Chlorophenyl)-4,5-dihydro-1H-imidazol-2-yl]-(4-fluorobenzyl)amine hydrochloride], the IC50 is 318 nM.

As for `c1ccc(SCC2=N[C@@H](c3ccccc3)[C@@H](c3cccnc3)N2)cc1` (relative stereo) [ditrifluoroacetate], the IC50 worked out at 866 nM.

For the compound `COC(C1=N[C@@H](c2ccccc2)[C@@H](c2ccccc2)N1)c1ccccc1` (stereo partly drawn) [cis-4,5-diphenyl-2-(methoxy-phenyl-methyl)-4,5-dihydro-1H-imidazole], the IC50 was determined as 101 nM.

Take `CC(C)(CC1=N[C@@H](c2ccccc2)[C@@H](c2ccccc2)N1)c1ccccc1`: the concentration for half-maximal inhibition (IC50) stood at 10 nM. As for `C[C@@]1(c2cccc(F)c2)N=C(Cc2ccc(F)cc2)N[C@@H]1c1cccc(F)c1` (relative stereo) [2-(4-Fluorobenzyl)-cis-4,5-bis-(3-fluorophenyl)-4-methyl-4,5-dihydro-1H-imidazole trifluoroacetate], the IC50 was 32 nM. Still for that read-out and setting: the result for `C[C@@]1(c2ccc(F)cc2)N=C(NCc2ccc(F)cc2)N[C@@H]1c1ccc(F)cc1` reads 139 nM; that for `Cc1ccccc1[C@H]1NC(NCc2cccc(F)c2)=N[C@H]1c1ccccc1C` [[cis-4,5-bis-(2-Methylphenyl)-4,5-dihydro-1H-imidazol-2-yl]-(3-fluorobenzyl)amine hydrochloride], 121 nM. For `CC(C1=N[C@](C)(c2ccccc2)[C@H](c2ccccc2)N1)c1ccccc1` (relative stereo) [2-(1-Phenyl-1-ethyl)-cis-4,5-diphenyl-4-methyl-4,5-dihydro-1H-imidazole trifluoroacetate], the IC50 stood at 68 nM. For the compound `Fc1ccccc1CCNC1=N[C@@H](c2ccccc2)[C@@H](c2ccccc2)N1` [(cis-4,5-Diphenyl-4,5-dihydro-1H-imidazol-2-yl)-[2-(2-fluorophenyl)ethyl]amine hydrochloride], the concentration for half-maximal inhibition (IC50) was 87 nM. On the same count and under the same terms, the value for `c1ccc(CCC2=N[C@@H](c3ccccc3)[C@@H](c3cccnc3)N2)cc1` (relative stereo) [ditrifluoroacetate] was 251 nM; that for `Fc1cccc(CC2=N[C@H](c3ccccc3)[C@H](c3ccccc3)N2)c1` [cis-4,5-diphenyl-2-(3-fluorobenzyl)-4,5-dihydro-1H-imidazole] was 84 nM; that for `c1ccc(OCC2=N[C@@H](c3ccccc3)[C@@H](c3ccccc3)N2)cc1` [cis-4,5-diphenyl-2-phenoxymethyl-4,5-dihydro-1H-imidazole] was 612 nM. Same read-out and setting: the value for `Fc1ccc(CNC2=N[C@@H](c3cccc(F)c3)[C@@H](c3cccc(F)c3)N2)cc1` [[cis-4,5-bis-(3-Fluorophenyl)-4,5-dihydro-1H-imidazol-2-yl]-(4-fluorobenzyl)amine hydrochloride] was 71 nM; that for `Cc1cccc(CNC2=N[C@@H](c3ccccc3F)[C@@H](c3ccccc3F)N2)c1` [[cis-4,5-bis-(2-Fluorophenyl)-4,5-dihydro-1H-imidazol-2-yl]-(3-methylbenzyl)amine hydrochloride] was 379 nM; that for `c1ccc([C@H]2NC(CCc3ccccn3)=N[C@H]2c2ccccc2)cc1` [cis-4,5-diphenyl-2-[2-(2-pyridyl)ethyl)-4,5-dihydro-1H-imidazole] was 720 nM. As for `Fc1cccc([C@H]2NC(NCc3ccccc3)=N[C@H]2c2cccc(F)c2)c1` [[cis-4,5-bis-(3-Fluorophenyl)-4,5-dihydro-1H-imidazol-2-yl]-benzylamine hydrochloride], the IC50 was 90 nM.

As to `COc1ccccc1CNC1=N[C@@H](c2ccccc2)[C@@H](c2ccccc2)N1` [cis-4,5-diphenyl-2-(2-methoxybenzyl)amino-4,5-dihydro-1H-imidazole], the half-maximal inhibitory concentration (IC50) is 409 nM.

With `Fc1cccc(CNC2=N[C@@H](c3ccccc3Cl)[C@@H](c3ccccc3Cl)N2)c1` [[cis-4,5-bis-(2-Chlorophenyl)-4,5-dihydro-1H-imidazol-2-yl]-(3-fluorobenzyl)amine hydrochloride], the IC50 came out at 592 nM. Take `c1ccc(SCC2=N[C@@H](c3ccccc3)[C@@H](c3ccccc3)N2)cc1` [2-[(Phenylsulfanyl)methyl]-cis-4,5-diphenyl-4,5-dihydro-1H-imidazole trifluoroacetate]: the concentration for half-maximal inhibition (IC50) worked out at 198 nM. Consider `C[C@@]1(c2ccccc2)N=C(COc2ccccc2Cl)N[C@@H]1c1ccccc1` (relative stereo) [2-[(2-Chlorophenoxy)methyl]-cis-4,5-diphenyl-4-methyl-4,5-dihydro-1H-imidazole hydrochloride], for which the IC50 is 743 nM. As for `Fc1ccc(OCC2=N[C@@H](c3cccc(F)c3)[C@@H](c3cccc(F)c3)N2)cc1` [2-[(4-Fluorophenoxy)methyl]-cis-4,5-bis-(3-fluorophenyl)-4,5-dihydro-1H-imidazole], the half-maximal inhibitory concentration (IC50) was 346 nM. Take `Fc1cccc([C@H]2NC(Cc3ccccc3F)=N[C@H]2c2cccc(F)c2)c1` [2-(2-Fluorobenzyl)-cis-4,5-bis-(3-fluorophenyl)-4,5-dihydro-1H-imidazole trifluoroacetate]: the IC50 was 449 nM.

Consider `C[C@@]1(c2ccccc2)N=C(CSCc2ccccc2)N[C@@H]1c1ccccc1` (relative stereo) [cis-4,5-diphenyl-4-methyl-2-[(benzylsulfanyl)methyl]-4,5-dihydro-1H-imidazole], for which the IC50 came to 525 nM.

As for `Fc1cccc(F)c1CC1=N[C@@H](c2ccccc2)[C@@H](c2ccccc2)N1` [trifluoroacetate], the IC50 worked out at 966 nM.

For the compound `Cc1ccc(F)c(CC2=N[C@@H](c3ccccc3)[C@@H](c3ccccc3)N2)c1F` [trifluoroacetate], the half-maximal inhibitory concentration (IC50) was 594 nM.

Broadly, the IC50 is the midpoint of a concentration-inhibition curve.
